Results on one compound are retold here after patent US7247628B2, “Cannabinoid receptor ligands and uses thereof” (Pfizer, Inc., priority 2002, dated 2007).

The assay concerns the target T1, CB-1 receptor (Homo sapiens, UniProt P21554).
T1 construct: expressed in transfected cells; host or cells: HEK 293 cells (membrane preparation); cDNA obtained from Dr. Debra Kendall, University of Connecticut
The assay is described as follows: Human CB-1 receptor binding ([3H]SR141716A displacement). The note with it: CB-1 receptor binding assay, inhibition of [3H] SR141716A binding. The method, then:
Human embryonic kidney 293 (HEK 293) cells transfected with the CB-1 receptor cDNA (obtained from Dr. Debra Kendall, University of Connecticut) were harvested in homogenization buffer (10 mM EDTA, 10 mM EGTA, 10 mM Na Bicarbonate, protease inhibitors; pH=7.4), and homogenized with a Dounce Homogenizer. The homogenate was then spun at 1,000×g for 5 minutes at 4° C. The supernatant was recovered and centrifuged at 25,000×G for 20 minutes at 4° C. The pellet was then re-suspended in 10 ml of homogenization buffer and re-spun at 25,000×G for 20 minutes at 4° C. The final pellet was re-suspended in 1 ml of TME (25 mM Tris buffer (pH=7.4) containing 5 mM MgCl2 and 1 mM EDTA). A protein assay was performed and 200 μl of tissue totaling 20 μg was added to the assay.
The test compounds were diluted in drug buffer (0.5% BSA, 10% DMSO and TME) and then 25 μl were added to a deep well polypropylene plate. [^3H] SR141716A was diluted in a ligand buffer (0.5% BSA plus TME) and 25 μl were added to the plate. The plates were covered and placed in an incubator at 30° C. for 60 minutes. At the end of the incubation period 250 μl of stop buffer (5% BSA plus TME) was added to the reaction plate. […] In the morning the filters were counted on a Wallac Betaplate™ counter (available from PerkinElmer Life Sciences™, Boston, Mass.).

T1 sequence (P21554 whole entry): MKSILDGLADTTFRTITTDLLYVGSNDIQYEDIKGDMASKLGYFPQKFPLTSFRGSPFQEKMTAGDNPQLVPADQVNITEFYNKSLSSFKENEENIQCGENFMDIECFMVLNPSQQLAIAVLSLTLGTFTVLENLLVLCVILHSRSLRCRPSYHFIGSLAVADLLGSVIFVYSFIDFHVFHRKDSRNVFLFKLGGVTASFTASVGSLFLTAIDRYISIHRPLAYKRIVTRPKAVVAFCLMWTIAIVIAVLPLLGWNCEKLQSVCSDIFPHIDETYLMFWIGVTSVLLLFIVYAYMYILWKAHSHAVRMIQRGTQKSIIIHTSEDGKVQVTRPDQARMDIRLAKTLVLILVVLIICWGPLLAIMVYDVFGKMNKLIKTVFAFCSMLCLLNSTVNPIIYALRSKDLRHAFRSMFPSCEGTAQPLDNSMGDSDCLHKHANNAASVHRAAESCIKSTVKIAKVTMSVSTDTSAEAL

The compound `Cc1cccc(CN2CCOC(c3nn(-c4ccccc4Cl)c(-c4ccc(Cl)cc4)c3C)C2)n1` (stereo not shown) [Example 5A-6, 2-[1-(2-Chlorophenyl)-5-(4-chlorophenyl)-4-methyl-1H-pyrazol-3-yl]-4-(6-methyl-pyridin-2-ylmethyl)-morpholine] showed a binding affinity of 79 nM.
